Assay results published in patent publication US12077503B2, “Substituted cyclic amides and their use as herbicides” (FMC CORPORATION, priority 2015, dated 2024).

Legend:
Assay type in all cases: in vivo
[1] = system: ducksalad (Heteranthera limosa); test: Test B flooded paddy test; conditions: Heteranthera limosa, Flood, 250 g ai/ha; scale of 0 to 100 where 0 is no effect and 100 is complete control; read-out: Ducksalad plant response rating
In short: (§1)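 Visual ratings (0 none to 100 complete control) are relative to untreated plants, taken 13–15 d after treatment in a greenhouse. Test material went straight into floodwater standing 3 cm above the soil, kept constant, on plants at the 2-leaf stage.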

[2] = system: sedge, umbrella (small-flower umbrella sedge, Cyperus difformis); test: Test B flooded paddy test; conditions: Cyperus difformis, Flood, 250 g ai/ha; scale of 0 to 100 where 0 is no effect and 100 is complete control; read-out: Sedge, Umbrella plant response rating
In short: as §1

[3] = system: rice (Oryra sativa); test: Test B flooded paddy test; conditions: Oryza sativa, Flood, 250 g ai/ha; scale of 0 to 100 where 0 is no effect and 100 is complete control; read-out: Rice plant response rating
In short: as §1

[4] = system: barnyardgrass (Echinochloa crus-galli); test: Test B flooded paddy test; conditions: Echinochloa crus-galli, Flood, 250 g ai/ha; scale of 0 to 100 where 0 is no effect and 100 is complete control; read-out: Barnyardgrass plant response rating
In short: as §1

[5] = system: Galium (catchweed bedstraw, Galium aparine); test: Test A postemergence; conditions: Galium, post-emergence, 240 h, 125 g ai/ha, Postemergence; visual injury after approximately 10 d; 0 to 100 scale where 0 is no effect and 100 is complete control; read-out: Plant response rating, Galium
In short: (§2)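 Visual injury scores from 0, no effect, to 100, complete control, were assigned versus untreated controls roughly 10 d after treatment in the greenhouse. Test chemicals, formulated with surfactant in a non-phytotoxic solvent, were applied to planted seeds as a preemergence soil spray or postemergence to one- to two-leaf plants 2 to 10 cm tall, in loam–sand soil.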

[6] = system: wheat (Triticum aestivum); test: Test A postemergence; conditions: Triticum aestivum, post-emergence, 240 h, 125 g ai/ha, Postemergence; visual injury after approximately 10 d; 0 to 100 scale where 0 is no effect and 100 is complete control; read-out: Plant response rating, Wheat
In short: as §2

[7] = system: ragweed (common ragweed, Ambrosia elatior); test: Test A postemergence; conditions: Ambrosia artemisiifolia, post-emergence, 240 h, 125 g ai/ha, Postemergence; visual injury after approximately 10 d; 0 to 100 scale where 0 is no effect and 100 is complete control; read-out: Plant response rating, Ragweed
In short: as §2

[8] = system: ryegrass, Italian (Italian ryegrass, Lolium multiflorum); test: Test A postemergence; conditions: Lolium multiflorum, post-emergence, 240 h, 125 g ai/ha, Postemergence; visual injury after approximately 10 d; 0 to 100 scale where 0 is no effect and 100 is complete control; read-out: Plant response rating, Ryegrass, Italian
In short: as §2

[9] = system: Kochia (Kochia scoparia); test: Test A postemergence; conditions: Bassia scoparia, post-emergence, 240 h, 125 g ai/ha, Postemergence; visual injury after approximately 10 d; 0 to 100 scale where 0 is no effect and 100 is complete control; read-out: Plant response rating, Kochia
In short: as §2

[10] = system: giant foxtail (Setaria faberii); test: Test A preemergence; conditions: Setaria faberi, pre-emergence, 240 h, preemergence, read-out: Foxtail, Giant plant response rating; for pest or weed control at 125 g/ha: 125 g ai/ha, 0 to 100 scale where 0 is no effect and 100 is complete control; for pest or weed control at 500 g/ha: 500 g ai/ha, visual injury rating about 10 d after treatment, 0 to 100 scale (0 no effect, 100 complete control)
In short: as §2

[11] = system: pigweed (Amaranthus retroflexus); test: Test A preemergence; conditions: Amaranthus retroflexus, pre-emergence, 240 h, preemergence, read-out: Pigweed plant response rating; for pest or weed control at 125 g/ha: 125 g ai/ha, 0 to 100 scale where 0 is no effect and 100 is complete control; for pest or weed control at 500 g/ha: 500 g ai/ha, visual injury rating about 10 d after treatment, 0 to 100 scale (0 no effect, 100 complete control)
[12] = system: ragweed (common ragweed, Ambrosia elatior); test: Test A preemergence; conditions: Ambrosia artemisiifolia, pre-emergence, 240 h, 500 g ai/ha, preemergence; visual injury rating about 10 d after treatment, 0 to 100 scale (0 no effect, 100 complete control); read-out: Ragweed plant response rating
In short: as §2

[13] = system: barnyardgrass (Echinochloa crus-galli); test: Test A preemergence; conditions: Echinochloa crus-galli, pre-emergence, 240 h, preemergence, read-out: Barnyardgrass plant response rating; for pest or weed control at 125 g/ha: 125 g ai/ha, 0 to 100 scale where 0 is no effect and 100 is complete control; for pest or weed control at 500 g/ha: 500 g ai/ha, visual injury rating about 10 d after treatment, 0 to 100 scale (0 no effect, 100 complete control)
In short: as §2

[14] = system: ryegrass, Italian (Italian ryegrass, Lolium multiflorum); test: Test A preemergence; conditions: Lolium multiflorum, pre-emergence, 240 h, 500 g ai/ha, preemergence; visual injury rating about 10 d after treatment, 0 to 100 scale (0 no effect, 100 complete control); read-out: Ryegrass, Italian plant response rating
In short: as §2

[15] = system: Kochia (Kochia scoparia); test: Test A preemergence; conditions: Bassia scoparia, pre-emergence, 240 h, preemergence, read-out: Kochia plant response rating; for pest or weed control at 125 g/ha: 125 g ai/ha, 0 to 100 scale where 0 is no effect and 100 is complete control; for pest or weed control at 500 g/ha: 500 g ai/ha, visual injury rating about 10 d after treatment, 0 to 100 scale (0 no effect, 100 complete control)
In short: as §2

SMILES	pest or weed control at 250 g/ha [1] [%]	pest or weed control at 250 g/ha [2] [%]	pest or weed control at 250 g/ha [3] [%]	pest or weed control at 250 g/ha [4] [%]	pest or weed control at 125 g/ha [5] [%]	plant injury at 125 g/ha [6] [%]	pest or weed control at 125 g/ha [7] [%]	pest or weed control at 125 g/ha [8] [%]	pest or weed control at 125 g/ha [9] [%]	pest or weed control at 125 g/ha [10] [%]	pest or weed control at 500 g/ha [10] [%]	pest or weed control at 125 g/ha [11] [%]	pest or weed control at 500 g/ha [11] [%]	pest or weed control at 500 g/ha [12] [%]	pest or weed control at 125 g/ha [13] [%]	pest or weed control at 500 g/ha [13] [%]	pest or weed control at 500 g/ha [14] [%]	pest or weed control at 125 g/ha [15] [%]	pest or weed control at 500 g/ha [15] [%]
C=CCOc1cccc(C2CN(C)C(=O)C2C(=O)Nc2cccc(F)c2F)c1 (centres unmarked) [Compound 933]	60	0	0	60	50	20	0	40	50	90	100	30	30	90	90	100	70	50	90
CN1C[C@H](c2ccc(C(F)(F)F)cc2)[C@@H](C(=O)Nc2cccc(F)c2Br)C1=O [Compound 937]	45	0	0	0	70	20	20	20	30	90	90	50	80	80	90	90	50	80	80
